Consider 32 compounds from US20110263564A1, “PYRIDINE, BICYCLIC PYRIDINE AND RELATED ANALOGS AS SIRTUIN MODULATORS” (Sirtris Pharmaceuticals, Inc., priority 2008, published 2011).

Bounds are passed on as bounds.

In this assay the target is T1, SIRT1 (Homo sapiens, UniProt Q96EB6).
T1 sequence (Q96EB6 1-747): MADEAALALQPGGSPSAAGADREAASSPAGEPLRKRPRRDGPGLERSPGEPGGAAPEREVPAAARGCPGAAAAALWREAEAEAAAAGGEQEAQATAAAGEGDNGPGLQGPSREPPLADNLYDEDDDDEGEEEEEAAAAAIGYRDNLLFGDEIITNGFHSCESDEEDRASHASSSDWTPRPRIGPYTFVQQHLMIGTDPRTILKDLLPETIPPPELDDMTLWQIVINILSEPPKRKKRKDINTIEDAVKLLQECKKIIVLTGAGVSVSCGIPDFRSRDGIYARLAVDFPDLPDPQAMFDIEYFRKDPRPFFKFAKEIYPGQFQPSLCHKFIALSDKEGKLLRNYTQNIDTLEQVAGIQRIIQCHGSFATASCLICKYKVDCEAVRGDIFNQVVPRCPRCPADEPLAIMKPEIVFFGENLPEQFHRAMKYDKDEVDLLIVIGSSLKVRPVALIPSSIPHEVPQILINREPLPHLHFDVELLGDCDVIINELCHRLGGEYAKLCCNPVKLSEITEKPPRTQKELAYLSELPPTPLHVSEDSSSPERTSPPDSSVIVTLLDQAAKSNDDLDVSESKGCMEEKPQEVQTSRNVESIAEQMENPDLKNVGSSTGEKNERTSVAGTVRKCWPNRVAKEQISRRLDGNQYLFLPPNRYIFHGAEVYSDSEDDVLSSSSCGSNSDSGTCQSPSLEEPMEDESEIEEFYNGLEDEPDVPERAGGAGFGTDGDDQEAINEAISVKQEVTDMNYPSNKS
As to the kind of experiment: Mass spectrometry based assay of SIRT1 activity (deacetylation of a p53-based acetylated peptide). It is filed as biochemical. Conditions: 10 nM SIRT1, 0.5 μM peptide substrate, 120 μM βNAD+, 25 minutes at 25° C.; for Emax: read-out: % FOLD ACT. (percent maximum fold activation). From the text:
A mass spectrometry based assay was used to identify modulators of SIRT1 activity. The mass spectrometry based assay utilizes a peptide having 20 amino acid residues as follows: Ac-EE-K(biotin)-GQSTSSHSK(Ac)NleSTEG-K(5TMR)-EE-NH2 (SEQ ID NO: 1) wherein K(Ac) is an acetylated lysine residue and Nle is a norleucine. The peptide is labeled with the fluorophore 5TMR (excitation 540 nm/emission 580 nm) at the C-terminus. The sequence of the peptide substrate is based on p53 with several modifications. In addition, the methionine residue naturally present in the sequence was replaced with the norleucine because the methionine may be susceptible to oxidation during synthesis and purification.
The mass spectrometry assay is conducted as follows: 0.5 μM peptide substrate and 120 μM βNAD^+ is incubated with 10 nM SIRT1 for 25 minutes at 25° C. in a reaction buffer (50 mM Tris-acetate pH 8, 137 mM NaCl, 2.7 mM KCl, 1 mM MgCl2, 5 mM DTT, 0.05% BSA). Test compounds may be added to the reaction as described above. […] After the 25 minute incubation with SIRT1, 10 μL of 10% formic acid is added to stop the reaction. Reactions are sealed and frozen for later mass spec analysis. Determination of the mass of the substrate peptide allows for precise determination of the degree of acetylation (i.e. starting material) as compared to deacetylated peptide (product).
A control for inhibition of sirtuin activity is conducted by adding 1 μL of 500 mM nicotinamide as a negative control at the start of the reaction (e.g., permits determination of maximum sirtuin inhibition). A control for activation of sirtuin activity is conducted using 10 nM of sirtuin protein, with 1 μL of DMSO in place of compound, to determine the amount of deacetylation of the substrate at a given timepoint within the linear range of the assay. This timepoint is the same as that used for test compounds and, within the linear range, the endpoint represents a change in velocity.
For the above assay, SIRT1 protein was expressed and purified as follows. […] The protein was expressed by induction with 1 mM IPTG as an N-terminal His-tag fusion protein at 18° C. overnight and harvested at 30,000×g. Cells were lysed with lysozyme in lysis buffer (50 mM Tris-HCl, 2 mM Tris[2-carboxyethyl]phosphine (TCEP), 10 μM ZnCl2, 200 mM NaCl) and further treated with sonication for 10 min for complete lysis. The protein was purified over a Ni-NTA column (Amersham) and fractions containing pure protein were pooled, concentrated and run over a sizing column (Sephadex S200 26/60 global). The peak containing soluble protein was collected and run on an Ion-exchange column (MonoQ). Gradient elution (200 mM-500 mM NaCl) yielded pure protein. This protein was concentrated and dialyzed against dialysis buffer (20 mM Tris-HCl, 2 mM TCEP) overnight. The protein was aliquoted and frozen at −80° C. until further use.
Sirtuin modulating compounds that activated SIRT1 were identified using the assay described above and are shown below in Table 1 for compounds of Formula (III)). The EC1.5 values represent the concentration of test compounds that result in 150% activation of SIRT1. The EC1.5 values for the activating compounds in Table 1 are represented by A (EC1.5<10.0 μM), B (EC1.5 10-25 μM), C (EC1.5>25 μM). The percent maximum fold activation is represented by A (Fold activation>200%) or B (Fold Activation<200%); “NT” means not tested; “ND” mean not determinable.

Consider `O=C(NC1CCCc2ccc(-c3cccc(C(F)(F)F)c3)nc21)c1cccc(N2CCOCC2)n1` (stereo not shown) [Compound 236], for which the “EC1.5 (concentration of test compound that results in 150% activation of SIRT1)” value is “A (EC1.5<10.0 μM)” and the Emax was > 200%.

For `O=C(NC1CCCc2ccc(-c3ccccc3C(F)(F)F)nc21)c1cnccn1` (stereo not shown) [Compound 253], the “EC1.5 (concentration of test compound that results in 150% activation of SIRT1)” value is given as “C (EC1.5>25 μM)”.

In the case of `O=C(NC1CCCc2ccc(-c3cccc(C(F)(F)F)c3)nc21)c1cccc(N2CCCC2)n1` (stereo not shown) [Compound 235], the “EC1.5 (concentration of test compound that results in 150% activation of SIRT1)” value is “A (EC1.5<10.0 μM)” and the Emax is < 200%.

With `O=C(Nc1ccccn1)C1CCCc2ccc(-c3cccc(C(F)(F)F)c3)nc21` (stereo not shown) [Compound 284], the “EC1.5 (concentration of test compound that results in 150% activation of SIRT1)” value is “C (EC1.5>25 μM)”.

Turning to `O=C(NC1CCOc2ccc(-c3cccc(C(F)(F)F)c3)nc21)c1ccnc(CN2CCOCC2)c1` (stereo not shown) [Compound 223], the “EC1.5 (concentration of test compound that results in 150% activation of SIRT1)” value is “C (EC1.5>25 μM)”.

Take `CC(C)c1ccccc1-c1ccc2c(n1)C(NC(=O)c1cnccn1)CCC2` (stereo not shown) [Compound 258]: the “EC1.5 (concentration of test compound that results in 150% activation of SIRT1)” value was “C (EC1.5>25 μM)”.

On to `O=C(NC1CCCc2ccc(-c3cccc(C(F)(F)F)c3)nc21)c1cnccn1` (stereo not shown) [Compound 206, N-(2-(3-(trifluoromethyl)phenyl)-5,6,7,8-tetrahydroquinolin-8-yl)pyrazine-2-carboxamide], for which the “EC1.5 (concentration of test compound that results in 150% activation of SIRT1)” value is reported as “A (EC1.5<10.0 μM)” and the Emax was > 200%.

Regarding `CC(NC(=O)c1cccnc1)c1cccc(-c2cccc(C(F)(F)F)c2)n1` (stereo not shown) [Compound 212], the “EC1.5 (concentration of test compound that results in 150% activation of SIRT1)” value is “A (EC1.5<10.0 μM)” and the Emax is > 200%.

As to `O=C(NC1CCCc2ccc(-c3cccnc3)nc21)c1cnccn1` (stereo not shown) [Compound 246], the “EC1.5 (concentration of test compound that results in 150% activation of SIRT1)” value is on record as “C (EC1.5>25 μM)”.

For `CC(NC(=O)c1cccc(CN2CCCC2)n1)c1cccc(-c2cccnc2)n1` (stereo not shown) [Compound 220], the “EC1.5 (concentration of test compound that results in 150% activation of SIRT1)” value was “C (EC1.5>25 μM)”.

Consider `O=C(NC1CCCc2ccc(-c3cccc(C(F)(F)F)c3)nc21)c1ccnc(CN2CCOCC2)c1` (stereo not shown) [Compound 238], for which the “EC1.5 (concentration of test compound that results in 150% activation of SIRT1)” value was “C (EC1.5>25 μM)”.

Regarding `O=C(NC1CCCc2ccc(-c3cccc(C(F)(F)F)c3)nc21)c1ccnc(CN2CCCC2)c1` (stereo not shown) [Compound 239], the “EC1.5 (concentration of test compound that results in 150% activation of SIRT1)” value is “C (EC1.5>25 μM)”.

`O=C(NC1CCCc2ccc(-c3cccc(C(F)(F)F)c3)nc21)c1cccc(CN2CCCC2)c1` (stereo not shown) [Compound 237]: the “EC1.5 (concentration of test compound that results in 150% activation of SIRT1)” value is reported as “B (EC1.5 10-25 μM)” and the Emax is < 200%.

As to `O=C(Nc1ccncn1)C1CCOc2ccc(-c3cccc(C(F)(F)F)c3)nc21` (stereo not shown) [Compound 303], the “EC1.5 (concentration of test compound that results in 150% activation of SIRT1)” value is listed as “C (EC1.5>25 μM)”.

Consider `Cc1cc(NC(=O)C2CCCc3ccc(-c4cccc(C(F)(F)F)c4)nc32)sn1` (stereo not shown) [Compound 282], for which the “EC1.5 (concentration of test compound that results in 150% activation of SIRT1)” value is “B (EC1.5 10-25 μM)” and the Emax was < 200%.

For `CC(NC(=O)c1ccccc1)c1cccc(-c2ccccc2)n1` (stereo not shown) [Compound 217], the “EC1.5 (concentration of test compound that results in 150% activation of SIRT1)” value is “C (EC1.5>25 μM)”.

As to `Cc1cnc(C(=O)NC2CCCc3ccc(-c4cccc(C(F)(F)F)c4)nc32)cn1` (stereo not shown) [Compound 234], the “EC1.5 (concentration of test compound that results in 150% activation of SIRT1)” value is “A (EC1.5<10.0 μM)” and the Emax is > 200%.

As to `CC(NC(=O)c1cscn1)c1cccc(-c2cccc(C(F)(F)F)c2)n1` (stereo not shown) [Compound 203], the “EC1.5 (concentration of test compound that results in 150% activation of SIRT1)” value is given as “B (EC1.5 10-25 μM)” and the Emax was < 200%.

Turning to `O=C(NC1CCCc2ccc(-c3cccc(C(F)(F)F)c3)nc21)c1ccc(F)c(Cl)c1` (stereo not shown) [Compound 225], the “EC1.5 (concentration of test compound that results in 150% activation of SIRT1)” value is listed as “C (EC1.5>25 μM)”.

As to `O=C(NC1CCCc2ccc(-c3cccc(C(F)(F)F)c3)nc21)c1cc[nH]n1` (stereo not shown) [Compound 229], the “EC1.5 (concentration of test compound that results in 150% activation of SIRT1)” value is on record as “B (EC1.5 10-25 μM)” and the Emax is < 200%.

As to `Cc1cc(NC(=O)C2CCCc3ccc(-c4cccc(C(F)(F)F)c4)nc32)no1` (stereo not shown) [Compound 288], the “EC1.5 (concentration of test compound that results in 150% activation of SIRT1)” value is “C (EC1.5>25 μM)”.

In the case of `O=C(NC1CCCc2ccc(-c3cc(C(F)(F)F)ccc3F)nc21)c1cnccn1` (stereo not shown) [Compound 251], the “EC1.5 (concentration of test compound that results in 150% activation of SIRT1)” value is on record as “A (EC1.5<10.0 μM)” and the Emax was > 200%.

Turning to `Cc1cncc(-c2ccc3c(n2)C(NC(=O)c2cnccn2)CCC3)c1` (stereo not shown) [Compound 200, N-(2-(5-methylpyridin-3-yl)-5,6,7,8-tetrahydroquinolin-8-yl)pyrazine-2-carboxamide], the “EC1.5 (concentration of test compound that results in 150% activation of SIRT1)” value was “C (EC1.5>25 μM)”.

For `CC(NC(=O)c1cccnc1)c1cccc(-c2cccc(C(F)(F)F)c2)n1` (stereo not shown) [Compound 216], the “EC1.5 (concentration of test compound that results in 150% activation of SIRT1)” value is reported as “C (EC1.5>25 μM)”.

As for `O=C(NC1CCCc2ccc(-c3cccc(C(F)(F)F)c3)nc21)c1ccc(CN2CCOCC2)nc1` (stereo not shown) [Compound 241], the “EC1.5 (concentration of test compound that results in 150% activation of SIRT1)” value is given as “C (EC1.5>25 μM)”.

Regarding `O=C(Nc1nc2ccccc2s1)C1CCCc2ccc(-c3cccc(C(F)(F)F)c3)nc21` (stereo not shown) [Compound 295], the “EC1.5 (concentration of test compound that results in 150% activation of SIRT1)” value is “C (EC1.5>25 μM)”.

Consider `CC(NC(=O)c1ccccc1)c1cccc(-c2cccc(C(F)(F)F)c2)n1` (stereo not shown) [Compound 215], for which the “EC1.5 (concentration of test compound that results in 150% activation of SIRT1)” value is recorded as “C (EC1.5>25 μM)”.

With `CC(NC(=O)c1cnccn1)c1cccc(-c2ccccc2)n1` (stereo not shown) [Compound 211], the “EC1.5 (concentration of test compound that results in 150% activation of SIRT1)” value was “C (EC1.5>25 μM)”.

As to `O=C(NC1CCCc2ccc(-c3cccc(C(F)(F)F)c3)nc21)c1cncnc1` (stereo not shown) [Compound 233], the “EC1.5 (concentration of test compound that results in 150% activation of SIRT1)” value is listed as “C (EC1.5>25 μM)”.

On to `Cc1cc(C(=O)NC2CCCc3ccc(-c4cccc(C(F)(F)F)c4)nc32)n(C)n1` (stereo not shown) [Compound 227], for which the “EC1.5 (concentration of test compound that results in 150% activation of SIRT1)” value is on record as “A (EC1.5<10.0 μM)” and the Emax was > 200%.

For `CC(NC(=O)c1cnccn1)c1cccc(-c2cccnc2)n1` (stereo not shown) [Compound 213], the “EC1.5 (concentration of test compound that results in 150% activation of SIRT1)” value is listed as “C (EC1.5>25 μM)”.

With `O=C(NC1CCCc2ccc(-c3cccc(N4CCCC4)c3)nc21)c1cnccn1` (stereo not shown) [Compound 260], the “EC1.5 (concentration of test compound that results in 150% activation of SIRT1)” value is “C (EC1.5>25 μM)”.
